This is an account of results in patent publication US20100076015A1, “Aminopyridine Derivatives” (VANTIA LIMITED, priority 2008, published 2010).

The target in this experiment is T1, Human KLK1 (Homo sapiens, UniProt P06870).
T1 construct: purchased Callbiochem (Calbiochem)
T1 sequence (P06870 25-262): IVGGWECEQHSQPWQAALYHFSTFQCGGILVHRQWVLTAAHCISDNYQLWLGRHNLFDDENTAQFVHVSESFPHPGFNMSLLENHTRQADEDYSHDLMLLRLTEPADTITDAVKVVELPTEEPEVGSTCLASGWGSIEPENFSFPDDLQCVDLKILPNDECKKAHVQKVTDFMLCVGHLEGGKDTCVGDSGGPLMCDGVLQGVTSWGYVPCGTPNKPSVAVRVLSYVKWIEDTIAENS
Description: Determination of the IC50 for KLK1 (fluorogenic substrate H-DVal-Leu-Arg-AFC). The class given is biochemical. To be noted: 37° C. In outline:
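Human KLK1 incubated at 37 °C with fluorogenic substrate H-DVal-Leu-Arg-AFC and a range of test compound concentrations. Residual activity was taken as initial reaction rate from absorbance change at 410 nm, and the IC50 derived from it.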
One may read the IC50 as the concentration at which inhibition is half-maximal. Read a high IC50 as weaker potency in that assay. `CCC(C)[C@@H](NC)C(=O)N[C@@H](Cc1ccc(C(C)(C)C)cc1)C(=O)NCc1ccc(N)nc1` (stereo partly drawn) [Example 52, (R)-3-Methyl-2-methylamino-pentanoic acid [(S)-1-[(6-amino-pyridin-3-ylmethyl)-carbamoyl]-2-(4-tert-butyl-phenyl)-ethyl]-amide] had an IC50 of 24.5 nM.

`Nc1ccc(CNC(=O)[C@H](Cc2cccc3ccccc23)NC(=O)c2nc3ccccc3[nH]2)cn1` [Example 299, 1H-Benzoimidazole-2-carboxylic acid {(S)-1-[(6-amino-pyridin-3-ylmethyl)-carbamoyl]-2-naphthalen-1-yl-ethyl}-amide] had an IC50 of 8.1 nM.

As to `Cc1nc(N)ccc1CNC(=O)[C@H](Cc1ccc(F)c(F)c1)NC(=O)[C@@H](C)N1CCCCC1` [Example 431, (R)—N-[(S)-1-[(6-Amino-2-methyl-pyridin-3-ylmethyl)-carbamoyl]-2-(3,4-difluoro-phenyl)-ethyl]-2-piperidin-1-yl-propionamide], half-maximal inhibition (IC50) was put at 50.6 nM. Compared with the last compound, the IC50 is about 6.2-fold higher.

For `Cc1cc(C)c(C(=O)N[C@@H](Cc2ccc(F)cc2)C(=O)NCc2ccc(N)nc2C)[nH]1` [Example 285, 3,5-Dimethyl-1H-pyrrole-2-carboxylic acid [(S)-1-[(6-amino-2-methyl-pyridin-3-ylmethyl)-carbamoyl]-2-(4-fluoro-phenyl)-ethyl]-amide], the IC50 amounted to 6.5 nM.

For `Nc1ccc(CNC(=O)[C@H](Cc2ccc(Cl)c(Cl)c2)NC(=O)[C@H]2CCCN2Cc2ccccc2)cn1` [Example 7, (R)-1-Benzyl-pyrrolidine-2-carboxylic acid [(S)-1-[(6-amino-pyridin-3-ylmethyl)-carbamoyl]-2-(3,4-dichloro-phenyl)-ethyl]-amide], half-maximal inhibition (IC50) was put at 10.5 nM.

`CC(C)N(C)C(C)C(=O)NC(Cc1cccc(Cl)c1)C(=O)NCc1ccc(N)nc1` [Example 409, (S)—N-[(S)-1-[6-Amino-pyridin-3-ylmethyl)-carbamoyl]-2-(3-chloro-phenyl)-ethyl]-2-(isopropyl-methyl-amino)-propionamide] had an IC50 of 0.63 nM.

For `Nc1ccc(CNC(=O)[C@H](Cc2ccc(F)c(F)c2)NC(=O)[C@H]2CCCN2CC(=O)O)cn1` [Example 135, {(R)-2-[(S)-1-[(6-Amino-pyridin-3-ylmethyl)-carbamoyl]-2-(3,4-difluoro-phenyl)-ethylcarbamoyl]-pyrrolidin-1-yl}-acetic acid], the IC50 is 17.3 nM.

In turn, `Nc1ccc(CNC(=O)[C@H](Cc2cccc(Cl)c2)NC(=O)c2cc3ccccc3[nH]2)cn1` [Example 313, 1H-Indole-2-carboxylic acid [(S)-1-[(6-amino-pyridin-3-ylmethyl)-carbamoyl]-2-(3-chloro-phenyl)-ethyl]-amide] returned an IC50 of 8.7 nM.

Compound `CCC(C)[C@H](C(=O)N[C@@H](Cc1ccc(Cl)c(Cl)c1)C(=O)NCc1ccc(N)nc1)N(C)C(C)C` (stereo partly drawn) [Example 155, (R)-2-(Isopropyl-methyl-amino)-3-methyl-pentanoic acid [(S)-1-[(6-amino-pyridin-3-ylmethyl)-carbamoyl]-2-(3,4-dichloro-phenyl)-ethyl]-amide] registered an IC50 of 63.3 nM.

Take `CCN(C)C(C)C(=O)NC(Cc1cccc(Cl)c1)C(=O)NCc1ccc(N)nc1` [Example 408, (S)—N-[(S)-1-[6-Amino-pyridin-3-ylmethyl)-carbamoyl]-2-(3-chloro-phenyl)-ethyl]-2-(ethyl-methyl-amino)-propionamide]: the IC50 turned out to be 4.8 nM.

As for `Nc1ccc(CNC(=O)[C@H](Cc2cccc3ccccc23)NC(=O)c2cc3cc(O)ccc3[nH]2)cn1` [Example 302, 5-Hydroxy-1H-indole-2-carboxylic acid {(S)-1-[(6-amino-pyridin-3-ylmethyl)-carbamoyl]-2-naphthalen-1-yl-ethyl}-amide], inhibition was half-maximal at 7.2 nM (IC50).

`CC(C(=O)N[C@@H](Cc1cc(F)cc(F)c1)C(=O)NCc1ccc(N)nc1)N1CCCCC1` (stereo partly drawn) [Example 425, N-[(S)-1-[(6-Amino-pyridin-3-ylmethyl)-carbamoyl]-2-(3,5-difluoro-phenyl)-ethyl]-2-piperidin-1-yl-propionamide] gave a concentration for half-maximal inhibition (IC50) of 14.9 nM.
